Assay [1] addresses ACE-2 (Homo sapiens, UniProt Q9BYF1). Particulars: cited from earlier work.
Assay [2] deals with awake, free-ranging Sprague-Dawley rats. As to the kind of experiment: Arterial pressure in awake, free-ranging Sprague-Dawley rats, intravenous infusion. It counts as in vivo. Particulars: awake rat. The method, then: FIG. 2. The effect of A1-9 on (A) mean arterial pressure ±SEM in the awake and freely-ranging rat (n=6 rats). Average mean arterial and pulse pressure as well as heart rate data were derived from the last 5 min of a 20 min continuous intravenous infusion period. * indicates a significant difference compared to vehicle-treated rats following analysis of variance and Dunnett's post-hoc test. A1-9 or angiotensin II (AII) continuous infusion doses are in μg/kg/min.
FIG. 3. The effect of A1-9 on angiotensin II-mediated pressor responses in normotensive awake male rats. Data are reported as average mean arterial pressure ±SEM (n=6 rats).
To investigate the effects of A1-9 on arterial pressure, A1-9 was administered to awake, free-ranging Sprague-Dawley rats via indwelling intravenous and arterial catheters. Intravenous infusion of A1-9 (1-3 μg/kg/min) in the awake rat produced a dose-dependent tonic increase in mean arterial pressure to a maximum of approximately 30 mmHg (FIG. 2). […] These responses seen with A1-9 were similar in magnitude to those induced by angiotensin II.
To examine any interactions induced by coadministration of A1-9 and angiotensin II, arterial pressure was monitored in the awake rat after they received either A1-9 (1 μg/kg/min) or saline coinfused with angiotensin II (1-100 ng/kg/min).

Assay [3] deals with isolated aortic vascular rings. As to the kind of experiment: Developed isometric tension of isolated aortic vascular rings. Details: species or system rat. From the text:
FIG. 1. Synergistic effects of Angiotensin 1-9 (A1-9) on angiotensin II (AII)-induced vasoconstriction, representative experiment (experiment 9 from Table 3). Data are presented as the mean percentage of the maximal contractile response as defined by full KCl depolarization following treatment with angiotensin peptides for four separate rings used to determine average response at each concentration. Generated tension was plotted against peptide concentration and the resulting concentration-response curves were subjected to regression analysis to determine whether the effects of the combination of A1-9 and angiotensin II produced additivity or synergy.
The effects of graded doses of A1-9 (Fields et al., Peptide Research 4: 95-101 (1991)) or A1-10 (substrate control) alone or in combination (Tallarida, Drug Synergism and Dose-Effect Data Analysis, Chapman and Hall/CRC, New York (2000), Tallarida et al., Life Science 61: PL417-425 (1997)) with angiotensin II were examined on isolated aortic vascular rings developed tension in response to vasoactive substances. Aortas were removed from mature male Sprague-Dawley rats, cleared of connective tissue, and cut into 1 mm rings. Rings were mounted to an isometric force transducer and placed in Krebs-Henseleit solution bubbled with 95% O2/5% CO2 at 37° C. Rings were exposed to a 2 g preload, relaxed and then exposed to various concentrations of angiotensin peptides alone or in combination. Following angiotensin peptide dosing, rings were fully constricted with KCl to determine the maximum degree of vasoconstriction.

Entries after “also recorded” stand apart in the source; their conditions may differ.

Chain of ACE-2 (Q9BYF1 18-805): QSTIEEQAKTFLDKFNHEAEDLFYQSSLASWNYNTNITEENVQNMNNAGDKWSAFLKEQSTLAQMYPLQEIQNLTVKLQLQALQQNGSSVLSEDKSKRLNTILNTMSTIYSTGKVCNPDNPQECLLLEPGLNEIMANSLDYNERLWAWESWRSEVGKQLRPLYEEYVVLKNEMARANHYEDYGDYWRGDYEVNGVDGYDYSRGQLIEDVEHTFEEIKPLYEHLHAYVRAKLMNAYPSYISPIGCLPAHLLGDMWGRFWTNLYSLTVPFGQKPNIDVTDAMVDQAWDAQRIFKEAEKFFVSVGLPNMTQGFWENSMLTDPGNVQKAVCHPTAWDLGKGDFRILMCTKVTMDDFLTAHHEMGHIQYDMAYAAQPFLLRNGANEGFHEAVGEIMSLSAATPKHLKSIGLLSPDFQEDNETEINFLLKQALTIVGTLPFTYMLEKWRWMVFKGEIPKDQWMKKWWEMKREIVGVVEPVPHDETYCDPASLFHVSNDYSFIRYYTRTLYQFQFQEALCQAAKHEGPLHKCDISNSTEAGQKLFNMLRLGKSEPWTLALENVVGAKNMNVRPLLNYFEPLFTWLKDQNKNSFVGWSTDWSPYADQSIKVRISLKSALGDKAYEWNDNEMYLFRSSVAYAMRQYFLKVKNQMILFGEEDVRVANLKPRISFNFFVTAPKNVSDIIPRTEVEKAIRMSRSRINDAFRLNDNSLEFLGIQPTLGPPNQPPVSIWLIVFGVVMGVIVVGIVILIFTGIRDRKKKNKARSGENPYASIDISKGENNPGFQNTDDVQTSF

`C[C@H](CS)C(=O)N1CCC[C@H]1C(=O)O` [captopril]: the “blockade of ACE-2 formation of A1-9 from angiotensin I” value in assay [1] is given as “not blocked”.
Turning to “angiotensin 1-9 (DRVYIHPFH; Angiotensin 1-9; UniProt P01019 25-33, looked up) [A1-9, nonapeptide formed by removal of the C-terminal leucine from angiotensin I]”, in assay [2] (coinfused with angiotensin II (1-100 ng/kg/min), A1-9 at 1 μg/kg/min), the “effect on pressor response elicited by angiotensin II” value is reported as “potentiated the pressor response elicted by angiotensin II in an additive fashion”. Moreover, the “increase in mean arterial pressure, maximum” value in assay [2] (intravenous infusion 1-3 μg/kg/min) is given as “approximately 30 mmHg”. Also, the “potentiation of angiotensin II-mediated vasoconstriction” value in assay [3] (combined with angiotensin II, rat aortic rings) was “superadditive or synergistic interaction”. Besides, the “maximum tension developed / effect on vascular tone, peptide alone” value in assay [3] (rat aortic rings) is recorded as “no effect on vascular tone; also recorded: minimal”. The “factor by which relative potency of angiotensin II was increased beyond simple addition” value in assay [3] (shift of angiotensin II dose-effect curve by A1-9, rat aortic rings, FIG. 1) was 11.6 (95% confidence limits of 3.02-44.7).
